Experimental data: patent EP0126287B1, “Fluorinated compounds having analgesic and antiinflammatory activities” (MEDEA RESEARCH S.r.l., priority 1983, dated 1984)
Where two headings read alike, the source gives them in different places.

Assays:
[1] = tested on: writhing induced by acetic acid in the rat; test: Inhibition of writhing induced by acetic acid, analgesic ED50; type: in vivo; conditions: po
Experimental: The ED50 in the analgesic activity of MR 883, in comparison to Diflunisal, D-prppoxyphene, phenylbutazone and acetylsalicylic acid was determined according to the test of inhibition of writhing induced by acetic acid in the rat (Sofia et al., J. Pharmacol. Expt. Therap. 186, 646, 1973).

[2] = tested on: carrageenin oedema in the rat paw; test: Carrageenin oedema test (rat paw), antiinflammatory activity; type: in vivo; conditions: for Inhibition versus control / AREAS % M ± ES: 50 mg/kg p.o., 10 rats per group; for Inhibition versus control: oedema areas; for AREAS % M ± ES: control 305 ±23.7; for ED50: Rattus norvegicus, carrageenin oedema, oral, groups of 10 rats, dosages of 25.50 and 100 mg/kg
Experimental: The antiinflammatory activity of the compounds of the invention was determined according to the carrageenin oedema test in rats, in comparison with equiponderal dosages of Diflunisal (Rissly, Ness.; Proc. Soc. Exp. Biol. Med., 111, 544-547, 1962).
ED50 of MR 883 and Diflunisal were determined according to the same test. Groups of 10 rats were administered orally with the compounds at dosages of 25.50 and 100 mg/kg.

[3] = tested on: writhing induced by phenylquinone administration in Swiss rats; test: Phenylquinone writhing test, analgesic activity; type: in vivo; conditions: for No. WRITHINGS M̄ ± ES: control 24.5 ±2.2
Experimental: The analgesic activity of the compounds of the invention was determined according to the writhing test, as inhibitory activity against the writhing induced by phenylquinone administration in Swiss rats (Siegmund et al., Proc. Soc. Exp. Biol. Med. 95, 729, 1957). The analgesic activity of MR 883 was determined in comparison to the one of Diflunisal and Naproxen.

rat = conditions: cited from earlier work
[4] = Acute toxicology: indicative LD50 in the rat; conditions: in vivo, ip
[5] = Qualitative solubility of the isolated product; type: physicochemical; conditions: for solubility in bicarbonate solutions: bicarbonate solution
[6] = dose 50 mg/kg, 10 animals per group
[7] = acetic acid writhing in the rat, per os, read-out: ED50

| Compound | Inhibition versus control [2] [%] | AREAS % M ± ES [2] | % Inhibition versus control ([3]; dose 50 mg/kg) [%] | No. WRITHINGS M̄ ± ES [3, 6] | ED50 [1, 7] [mg/kg] | LD50 [4] [mg/kg] | solubility in the usual organic solvents [5] | further results |
| --- | --- | --- | --- | --- | --- | --- | --- | --- |
| CC(=O)Oc1ccccc1C(=O)O [Acetylsalicylic acid] |  |  |  |  |  |  |  | ED50 ([1]; Rattus norvegicus): 330 mg/kg |
| CCC(=O)O[C@](Cc1ccccc1)(c1ccccc1)[C@H](C)CN(C)C [D-propoxyphene] |  |  |  |  |  |  |  | ED50 ([1]; Rattus norvegicus): 40 mg/kg |
| O=C(O)c1cc(-c2ccc(F)cc2F)ccc1O [Diflunisal, reference compound] | 59.6 | 123.3 ±10.1 | 82 | 4.3 ±1.6 | 45 |  |  | ED50 [2]: 234 mg/kg; LD50 p.o. (rat): about 750 mg/kg |
| O=C(O)C(O)c1ccc(-c2ccc(F)cc2F)cc1 (centres unmarked) [MR 864, 2-Hydroxy-2-[p-(2",4"-difluorophenyl)phenyl]acetic acid] | 42.7 | 174.7 ±20.7 | 85 | 3.6 ±1.2 |  | 850 |  | solubility in cyclohexane and petroleum ether ([5]; cyclohexane, petroleum ether): soluble; solubility in toluene, chloroform, carbon tetrachloride ([5]; toluene, chloroform, carbon tetrachloride): slightly soluble; solubility in water [5]: soluble |
| O=C(O)C(Cl)c1ccc(-c2ccc(F)cc2F)cc1 (centres unmarked) [MR 881, 2-Chloro-2-[p-(2",4"-difluorophenyl)phenyl]acetic acid] | 48.6 | 156.8 ±13.1 | 95 |  |  | 850 | soluble | solubility in bicarbonate solutions [5]: soluble; solubility in water [5]: insoluble |
| COC(C(=O)O)c1ccc(-c2ccc(F)cc2F)cc1 (centres unmarked) [MR 883, 2-Methoxy-2-[p-(2^1,4"-difluorophenyl)phenyl]acetic acid] | 52.8 | 144.0 ±17.5 | 98 |  | 25 | 2200 | soluble | ED50 [2]: 145 mg/kg |
| CCOC(C(=O)O)c1ccc(-c2ccc(F)cc2F)cc1 (centres unmarked) [MR 936, 2-Ethoxy-2-[p-(2",4"-difluorophenyl)phenyl]acetic acid] | 45.8 | 139.7 ±15.2 | 76.7 | 5.7 ±0.8 |  | 1800 | soluble | solubility in bicarbonate solutions [5]: soluble |
| COc1ccc2cc([C@H](C)C(=O)O)ccc2c1 [Naproxen, reference compound] |  |  |  |  |  |  |  | % Inhibition versus control ([3]; dose 100 mg/kg): 84%; No. WRITHINGS M̄ ± ES ([3]; dose 100 mg/kg, 10 animals): 4.0 ±1.1 |
| CCCCC1C(=O)N(c2ccccc2)N(c2ccccc2)C1=O [Phenylbutazone] |  |  |  |  | 180 |  |  |  |
